The values below come from article PMC6044507 (ACS Omega, 2018).

The target of assay [1] is T1, human GPR84 (Homo sapiens, UniProt Q9NQS5). The assay is described as follows: cell-based. Particulars: for percent receptor activation at 10 μM, cAMP assay: compound 10 μM; for percent receptor activation at 10 μM, cAMP assay / EC50: forskolin 10 μM; for EC50: CHO cells expressing human GPR84; for Emax: read-out: efficacy (Emax), cAMP assay. In kind it is cell-based.
Target sequence in this assay (Q9NQS5 whole entry): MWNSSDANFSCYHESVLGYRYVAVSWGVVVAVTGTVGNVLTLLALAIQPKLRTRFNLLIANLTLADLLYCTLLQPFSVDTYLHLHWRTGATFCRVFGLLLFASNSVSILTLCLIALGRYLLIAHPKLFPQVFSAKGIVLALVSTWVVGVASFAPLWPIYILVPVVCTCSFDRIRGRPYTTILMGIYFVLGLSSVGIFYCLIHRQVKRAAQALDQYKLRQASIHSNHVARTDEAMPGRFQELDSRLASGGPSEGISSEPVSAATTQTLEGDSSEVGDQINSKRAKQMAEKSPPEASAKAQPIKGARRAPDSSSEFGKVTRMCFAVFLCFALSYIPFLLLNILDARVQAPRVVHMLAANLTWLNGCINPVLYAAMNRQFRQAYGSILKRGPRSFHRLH

For assay [2], the target named is T1, human GPR84. The assay is described as follows: cell-based. Particulars: EC50 ± SEM, β-arrestin assay, CHO cells expressing human GPR84.
Target sequence in this assay (Q9NQS5 whole entry): as above
Target sequence in this assay (P32121 whole entry partner): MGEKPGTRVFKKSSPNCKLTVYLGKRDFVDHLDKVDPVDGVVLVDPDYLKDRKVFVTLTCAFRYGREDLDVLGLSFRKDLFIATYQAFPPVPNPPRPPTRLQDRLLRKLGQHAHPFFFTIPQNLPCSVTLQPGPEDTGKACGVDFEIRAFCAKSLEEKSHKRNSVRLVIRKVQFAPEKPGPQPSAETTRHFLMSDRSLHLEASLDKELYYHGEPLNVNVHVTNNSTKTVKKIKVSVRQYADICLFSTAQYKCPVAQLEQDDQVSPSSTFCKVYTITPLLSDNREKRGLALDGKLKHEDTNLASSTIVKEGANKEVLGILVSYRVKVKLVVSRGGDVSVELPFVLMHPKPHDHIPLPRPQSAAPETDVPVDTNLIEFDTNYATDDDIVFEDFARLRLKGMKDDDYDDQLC

As to `CCCCC(CC)CNc1cc(=O)[nH]c(=O)[nH]1` (racemic) [Compound 24, N^6-(R,S)-(2-ethyl)hexyluracil], in assay [1], the “agonistic activity at GPR84 in cAMP assay, in words” value (“agonistic activity at GPR84” below) is “abolished activity” and the “percent receptor activation at 10 μM, cAMP assay” value (from here on “percent receptor activation”) was 14%.
Turning to `CCNc1cc(=O)[nH]c(=O)[nH]1` [Compound 13], in assay [1], the “agonistic activity at GPR84” value is “inactive” and the “percent receptor activation” value turned out to be 15%.
In the case of `CCCNc1cc(=O)[nH]c(=O)[nH]1` [Compound 14], in assay [1], the “agonistic activity at GPR84” value was “inactive” and the “percent receptor activation” value is −9%.
For `CC(C)CNc1cc(=O)[nH]c(=O)[nH]1` [Compound 15], the “percent receptor activation” value in assay [1] worked out at 11%.
On to `CC(C)(C)CNc1cc(=O)[nH]c(=O)[nH]1` [Compound 16], for which the “percent receptor activation” value in assay [1] is on record as 4%.
Turning to `CC(C)CCNc1cc(=O)[nH]c(=O)[nH]1` [Compound 17], the “percent receptor activation” value in assay [1] is 14%.
For `CC(C)(C)CCNc1cc(=O)[nH]c(=O)[nH]1` [Compound 18], the “percent receptor activation” value in assay [1] is 18%.
Usually EC50 stands for the midpoint of the concentration-response curve. Read a low EC50 as a more potent agent. The term Emax denotes the maximal effect, on the per cent scale that the assay sets. For the compound `CCCCCNc1cc(=O)[nH]c(=O)[nH]1` [Compound 19, 6-Pentylamino-2,4(1H,3H)-pyrimidinedione], the EC50 was 0.46 ± 0.13 µM in assay [1] (EC50 ± SEM, cAMP assay) and 4.8 ± 1.3 µM in assay [2]. Further, the Emax in assay [1] was 106%.
On to `CCCCCCCNc1cc(=O)[nH]c(=O)[nH]1` [Compound 21, 6-Heptylamino-2,4(1H,3H)-pyrimidinedione], for which, in assay [1] (EC50 ± SEM, cAMP assay), the response was half-maximal at 0.012 ± 0.006 µM (EC50). Besides, the Emax in assay [1] is 113%.
For `CCCCCCCCCCNc1cc(=O)[nH]c(=O)[nH]1` [Compound 23, 6-Decylamino-2,4(1H,3H)-pyrimidinedione], the Emax in assay [1] is 109%.
In turn, `CC(C)CCCCCNc1cc(=O)[nH]c(=O)[nH]1` [Compound 25] had an EC50 in assay [1] (EC50 ± SEM, cAMP assay) of 5.9 ± 2.6 µM. Further, in assay [1], the Emax is 99%.
The compound `CSCCCNc1cc(=O)[nH]c(=O)[nH]1` [Compound 26, N^6-Methylthiopropyluracil] showed an EC50 in assay [1] (EC50 ± SEM, cAMP assay) of 23 ± 3 µM. Also, the Emax in assay [1] is 100%.
For the compound `O=c1cc(NCCCCCCO)[nH]c(=O)[nH]1` [Compound 27], in assay [1], the “percent receptor activation” value was 51 ± 8%.
As for `O=c1cc(NCCCCCCCO)[nH]c(=O)[nH]1` [Compound 28, 6-(7-Hydroxyheptylamino)-2,4(1H,3H)-pyrimidinedione], the EC50 was 1.98 µM in assay [1] (EC50, cAMP assay) and 2.1 ± 0.6 µM in assay [2]. In addition, in assay [1], the Emax is 105%.
Take `O=C(O)CCCCCNc1cc(=O)[nH]c(=O)[nH]1` [Compound 29]: the “percent receptor activation” value in assay [1] came out at 25%.
On the same count and under the same terms, with `O=C(O)CCCCCCCNc1cc(=O)[nH]c(=O)[nH]1` [Compound 30] the figure was 13%.
In assay [1] (EC50 ± SEM, cAMP assay), `CCCCCCCCCNc1cc(=O)n(C)c(=O)[nH]1` [Compound 32, 6-Nonylamino-3-methyl-2,4(1H,3H)-pyrimidinedione] had an EC50 of 2 ± 0.5 µM. The Emax in assay [1] is 74%.
With `CCCCCCNc1cc(=O)[nH]c(=O)n1C` [Compound 34], in assay [1], the “percent receptor activation” value is on record as 32%.
As to `CCCCCCCCNc1cc(=O)[nH]c(=O)n1C` [Compound 35], the “percent receptor activation” value in assay [1] is 34%.
Consider `CCCCCCCCNc1cc(=O)n(C)c(=O)n1C` [Compound 36], for which, in assay [1], the “agonistic activity at GPR84” value was “virtually abolished potency” and the “percent receptor activation” value was 25%.
`CCCCCCN(C)c1cc(=O)[nH]c(=O)[nH]1` [Compound 37, 6-(N-Methylhexylamino)-2,4(1H,3H)-pyrimidinedione] gave an EC50 in assay [1] (EC50 ± SEM, cAMP assay) of 0.11 ± 0.04 µM. Also, the Emax in assay [1] was 106%.
Regarding `CCCCCCCCN(C)c1cc(=O)[nH]c(=O)[nH]1` [Compound 38, 6-(N-Methyloctylamino)-2,4(1H,3H)-pyrimidinedione], the Emax in assay [1] was 107%. For the same compound, the EC50 in assay [2] amounted to 0.64 ± 0.02 µM.
For `CCCCCCCCNc1c[nH]c(=O)[nH]c1=O` [Compound 39], in assay [1], the “agonistic activity at GPR84” value was “completely inactive” and the “percent receptor activation” value is recorded as 6%.
In the case of `O=c1cc(NCc2ccccc2)[nH]c(=O)[nH]1` [Compound 40], in assay [1], the “agonistic activity at GPR84” value is “inactive” and the “percent receptor activation” value turned out to be 12%.
With `O=c1cc(NCc2cccc3ccccc23)[nH]c(=O)[nH]1` [Compound 41], in assay [1], the “agonistic activity at GPR84” value is “inactive” and the “percent receptor activation” value came out at 23%.
`O=c1cc(NCCCc2ccccc2)[nH]c(=O)[nH]1` [Compound 43, 6-(3-Phenylpropylamino)-2,4(1H,3H)-pyrimidinedione] yielded an EC50 in assay [1] (EC50 ± SEM, cAMP assay) of 1.7 ± 0.6 µM. Further, the Emax in assay [1] was 120%.
`Oc1cc(NCCCCc2ccccc2)nc(O)n1` [Compound 44, 6-(4-Phenylbutylamino)-2,4(1H,3H)-pyrimidinedione] gave an EC50 in assay [1] (EC50 ± SEM, cAMP assay) of 0.024 ± 0.01 µM. In addition, the Emax in assay [1] is 108%.
Turning to `Cc1ccc(CCNc2cc(=O)[nH]c(=O)[nH]2)cc1` [Compound 45, 6-(p-Methylphenylethylamino)-2,4(1H,3H)-pyrimidinedione], the EC50 in assay [1] (EC50 ± SEM, cAMP assay) was determined as 0.013 ± 0.001 µM; in assay [2] it was 0.32 ± 0.15 µM. Besides, the Emax in assay [1] is 114%.
For the compound `O=c1cc(NCCc2ccc(F)cc2)[nH]c(=O)[nH]1` [Compound 46, 6-(p-Fluorophenylethylamino)-2,4(1H,3H)-pyrimidinedione], the EC50 in assay [1] (EC50 ± SEM, cAMP assay) amounted to 0.065 ± 0.014 µM; in assay [2] it was 2 ± 0.8 µM. Further, the Emax in assay [1] is 111%.
Regarding `COc1ccc(CCNc2cc(=O)[nH]c(=O)[nH]2)cc1` [Compound 50, 6-(p-Methoxyphenylethylamino)-2,4(1H,3H)-pyrimidinedione], the EC50 in assay [1] (EC50 ± SEM, cAMP assay) was 0.057 ± 0.021 µM; in assay [2], 0.76 ± 0.37 µM. For the same compound, the Emax in assay [1] was 111%.
`Cc1cccc(CCNc2cc(=O)[nH]c(=O)[nH]2)c1` [Compound 52, 6-(m-Methylphenylethylamino)-2,4(1H,3H)-pyrimidinedione]: the EC50 was determined as 0.079 ± 0.025 µM in assay [1] (EC50 ± SEM, cAMP assay) and 0.78 ± 0.22 µM in assay [2]. Also, in assay [1], the Emax is 134%.
For the compound `O=c1cc(NCCc2cccc(F)c2)[nH]c(=O)[nH]1` [Compound 53, 6-(m-Fluorophenylethylamino)-2,4(1H,3H)-pyrimidinedione], the Emax in assay [1] is 136%.
As for `O=c1cc(NCCc2cccc(Cl)c2)[nH]c(=O)[nH]1` [Compound 54, 6-(m-Chlorophenylethylamino)-2,4(1H,3H)-pyrimidinedione], the EC50 in assay [1] (EC50 ± SEM, cAMP assay) came to 0.13 ± 0.01 µM; in assay [2], 0.3 ± 0.1 µM. In addition, the Emax in assay [1] was 125%.
Regarding `O=c1cc(NCCc2cccc(Br)c2)[nH]c(=O)[nH]1` [Compound 55, 6-(m-Bromophenylethylamino)-2,4(1H,3H)-pyrimidinedione], the EC50 in assay [1] (EC50 ± SEM, cAMP assay) came out at 0.064 ± 0.005 µM; in assay [2], 0.19 ± 0.03 µM. Further, in assay [1], the Emax was 147%.
On to `Cc1ccccc1CCNc1cc(=O)[nH]c(=O)[nH]1` [Compound 56, 6-(o-Methylphenylethylamino)-2,4(1H,3H)-pyrimidinedione], for which the EC50 in assay [1] (EC50 ± SEM, cAMP assay) is 3.2 ± 0.1 µM. Moreover, the Emax in assay [1] was 96%.
On to `O=c1cc(NCCc2ccccc2Cl)[nH]c(=O)[nH]1` [Compound 58, 6-(o-Chlorophenylethylamino)-2,4(1H,3H)-pyrimidinedione], for which the EC50 in assay [1] (EC50 ± SEM, cAMP assay) was determined as 0.1 ± 0.02 µM; in assay [2], 1.3 ± 0.1 µM. Further, in assay [1], the Emax is 122%.
Take `O=c1cc(NCCc2ccccc2Br)[nH]c(=O)[nH]1` [Compound 59]: in assay [1], the “percent receptor activation” value was found to be 19%.
On to `O=c1cc(NCCc2ccc(Cl)cc2Cl)[nH]c(=O)[nH]1` [Compound 61, 6-(o,p-Dichlorophenethylamino)-2,4(1H,3H)-pyrimidinedione], for which the EC50 in assay [1] (EC50 ± SEM, cAMP assay) was 0.044 ± 0.004 µM; in assay [2] it was 0.082 ± 0.035 µM. The Emax in assay [1] is 113%.
As for `O=c1cc(NCCc2cccs2)[nH]c(=O)[nH]1` [Compound 63, 6-(Thiophen-2-yl)ethylamino-2,4(1H,3H)-pyrimidinedione], in assay [1], the Emax was 112%.
In assay [1] (EC50 ± SEM, cAMP assay), `O=c1cc(NCCCOc2ccccc2)[nH]c(=O)[nH]1` [Compound 65, 6-(3-Phenoxypropylamino)-2,4(1H,3H)-pyrimidinedione] displayed an EC50 of 0.073 ± 0.005 µM. Besides, the Emax in assay [1] was 107%.
For `O=c1cc(N2CCC(c3ccccc3)CC2)[nH]c(=O)[nH]1` [Compound 66], in assay [1], the “agonistic activity at GPR84” value was “inactive” and the “percent receptor activation” value was determined as 13%.
`COc1ccccc1N1CCN(c2cc(=O)[nH]c(=O)[nH]2)CC1` [Compound 69]: the EC50 in assay [1] (EC50 ± SEM, cAMP assay) turned out to be 0.038 ± 0.007 µM. Further, the Emax in assay [1] is 53%.
The like results for `O=c1cc(N2CCN(Cc3cccc4ccccc34)CC2)[nH]c(=O)[nH]1` [Compound 71, 6-[4-(1-Naphthylmethyl)-1-piperazinyl]-2,4(1H,3H)-pyrimidinedione] were, in that order, 0.15 ± 0.04 µM and 137%.
As to `CCCCCCNc1[nH]c(=O)[nH]c(=O)c1Br` [Compound 72], in assay [1] (EC50 ± SEM, cAMP assay), the EC50 stood at 7.4 ± 1.6 µM. For the same compound, the Emax in assay [1] is 123%.
`CCCCCCCCNc1[nH]c(=O)[nH]c(=O)c1Br` [Compound 73, 5-Bromo-6-octylamino-2,4(1H,3H)-pyrimidinedione]: the EC50 in assay [1] (EC50 ± SEM, cAMP assay) stood at 2 ± 0.6 µM. Moreover, the Emax in assay [1] was 114%.
For `O=c1[nH]c(NCCCc2ccccc2)c(Br)c(=O)[nH]1` [Compound 75], the “percent receptor activation” value in assay [1] is 15%.
The compound `CCCCCCNc1[nH]c(=O)[nH]c(=O)c1N=O` [Compound 76] came in with an EC50 in assay [1] (EC50 ± SEM, cAMP assay) of 7.7 ± 0.5 µM. Besides, the Emax in assay [1] is 120%.
For `CCCCCCCNc1[nH]c(=O)[nH]c(=O)c1N=O` [Compound 77, 6-Heptylamino-5-nitroso-2,4(1H,3H)-pyrimidinedione], in that order: 0.5 ± 0.05 µM and 104%.
As to `O=Nc1c(NCCc2ccccc2)[nH]c(=O)[nH]c1=O` [Compound 79], the “percent receptor activation” value in assay [1] is recorded as 32%.
On to `COc1ccccc1N1CCN(CCCNc2cc(=O)n(C)c(=O)n2C)CC1` [urapidil, reference compound], for which, in assay [1], the “percent receptor activation” value worked out at 7%.
